Experiments:
[1] = xn = mol fraction of the nth substance listed; details: 100 kPa, Liquid; for mass density: Vibrating tube method; for speed of sound: Frequency=3 MHz, Sing-around technique in a fixed-path interferometer
[2] = refractive index (Na D-line) (dimensionless); xn = mol fraction of the nth substance listed; details: 100 kPa, Liquid, Standard Abbe refractometry

CCCC[n+]1ccn(C)c1.O=S(=O)([N-]S(=O)(=O)C(F)(F)F)C(F)(F)F + CN1CCCC1=O
Details	mass density, 318.15 K [kg/m3]	mass density, 323.15 K [kg/m3]	refractive index, 298.15 K	refractive index, 303.15 K	refractive index, 308.15 K	refractive index, 313.15 K	refractive index, 318.15 K	refractive index, 323.15 K	speed of sound, 323.15 K [m/s]
[1], x1 = 0.1051	1116.95	1112.42	–	–	–	–	–	–	1361.8
[1], x1 = 0.2088	1191.41	1186.82	–	–	–	–	–	–	1306.6
[1], x1 = 0.2926	1236.95	1232.32	–	–	–	–	–	–	1274.3
[1], x1 = 0.3807	1275.22	1270.56	–	–	–	–	–	–	1248.4
[1], x1 = 0.5019	1316.7	1312.04	–	–	–	–	–	–	1222.5
[1], x1 = 0.5925	1341.57	1336.92	–	–	–	–	–	–	1207.8
[1], x1 = 0.6982	1365.75	1361.1	–	–	–	–	–	–	1194.4
[1], x1 = 0.7862	1382.75	1378.1	–	–	–	–	–	–	1185.6
[1], x1 = 0.8895	1399.75	1395.1	–	–	–	–	–	–	1177.9
[1], x1 = 1	1414.61	1409.88	–	–	–	–	–	–	1173.6
[2], x1 = 0.1051	–	–	1.45767	1.45571	1.45375	1.45177	1.44978	1.44778	–
[2], x1 = 0.2088	–	–	1.45014	1.4483	1.44645	1.44455	1.44265	1.4407	–
[2], x1 = 0.2926	–	–	1.44539	1.44359	1.44178	1.43994	1.43809	1.43621	–
[2], x1 = 0.3807	–	–	1.44129	1.43954	1.43777	1.43596	1.43414	1.43228	–
[2], x1 = 0.5019	–	–	1.4368	1.4351	1.43337	1.43161	1.42983	1.42802	–
[2], x1 = 0.5925	–	–	1.43414	1.43244	1.43074	1.42904	1.42733	1.42562	–
[2], x1 = 0.6982	–	–	1.43169	1.43006	1.42842	1.42676	1.42509	1.42341	–
[2], x1 = 0.7862	–	–	1.42999	1.42842	1.42683	1.42522	1.42359	1.42193	–
[2], x1 = 0.8895	–	–	1.4283	1.42678	1.42524	1.42368	1.4221	1.42051	–
[2], x1 = 1	–	–	1.42671	1.42522	1.42373	1.42225	1.42076	1.41923	–
